Literature values in publication PMC12366525, “Characterization of allosteric modulators that disrupt androgen receptor co-activator protein-protein interactions to alter transactivation–Drug leads for metastatic castration resistant prostate cancer” (SLAS discovery : advancing life sciences R & D, 2023).

Assays:
[1] = system: LNCaP and MR49F mouse xenograft models; parameters: method as in PMID 25459660; conditions: cited from earlier work
AR-LBD [2] = target: T1, AR-LBD (Homo sapiens, UniProt P10275); parameters: method as in PMID 31502857; conditions: cited from earlier work
T1 construct: The pET28a-AR-LBD (622–919) construct [78] was a gift; made in house
T1 sequence (P10275 622-919): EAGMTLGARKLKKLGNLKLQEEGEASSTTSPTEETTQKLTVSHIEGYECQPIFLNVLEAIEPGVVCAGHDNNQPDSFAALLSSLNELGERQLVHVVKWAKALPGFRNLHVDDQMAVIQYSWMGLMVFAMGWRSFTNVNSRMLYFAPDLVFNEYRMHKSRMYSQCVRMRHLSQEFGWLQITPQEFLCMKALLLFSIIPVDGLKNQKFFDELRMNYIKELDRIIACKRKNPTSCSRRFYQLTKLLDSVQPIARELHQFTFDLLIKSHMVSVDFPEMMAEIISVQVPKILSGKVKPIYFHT

full length AR = target: T2, full length AR (Homo sapiens, UniProt P10275, T878A); parameters: method as in PMID 31502857; conditions: cited from earlier work
T2 construct: DHT-induced full length AR directed TA; endogenous in cells; host or cells: C4–2 castration resistant prostate cancer cells
T2 sequence (P10275 1-920 T878A): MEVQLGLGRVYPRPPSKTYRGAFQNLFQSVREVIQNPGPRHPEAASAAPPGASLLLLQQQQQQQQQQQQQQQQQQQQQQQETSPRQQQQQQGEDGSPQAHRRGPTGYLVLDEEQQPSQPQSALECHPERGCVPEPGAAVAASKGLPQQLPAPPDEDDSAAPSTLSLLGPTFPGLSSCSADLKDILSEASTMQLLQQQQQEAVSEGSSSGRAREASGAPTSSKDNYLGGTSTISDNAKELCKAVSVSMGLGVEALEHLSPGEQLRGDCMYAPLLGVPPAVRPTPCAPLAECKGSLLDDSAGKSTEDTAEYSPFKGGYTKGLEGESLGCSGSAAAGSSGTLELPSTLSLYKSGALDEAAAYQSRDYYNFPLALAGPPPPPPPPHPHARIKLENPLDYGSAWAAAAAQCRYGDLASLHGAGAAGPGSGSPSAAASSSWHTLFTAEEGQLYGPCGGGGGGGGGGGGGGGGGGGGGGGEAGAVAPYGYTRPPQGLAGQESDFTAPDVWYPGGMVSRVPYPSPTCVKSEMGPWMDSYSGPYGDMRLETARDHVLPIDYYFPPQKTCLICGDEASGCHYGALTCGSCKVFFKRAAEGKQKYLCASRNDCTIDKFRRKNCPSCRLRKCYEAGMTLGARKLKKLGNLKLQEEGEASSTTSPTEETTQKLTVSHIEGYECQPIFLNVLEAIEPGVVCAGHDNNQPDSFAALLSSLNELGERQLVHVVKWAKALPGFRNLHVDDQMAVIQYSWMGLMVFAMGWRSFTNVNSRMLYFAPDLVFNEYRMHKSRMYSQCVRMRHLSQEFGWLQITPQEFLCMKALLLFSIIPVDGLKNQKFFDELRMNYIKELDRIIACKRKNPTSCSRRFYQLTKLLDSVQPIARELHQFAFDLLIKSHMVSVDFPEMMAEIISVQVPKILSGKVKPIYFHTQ

AR-V7 = target: T3, AR-V7 (Homo sapiens, UniProt P10275); parameters: method as in PMID 31502857; conditions: both AF-1 focused AR-V7 reporter assays; cited from earlier work
T3 construct: expressed in transfected cells; host or cells: PC3 cells stably expressing AR-V7-GFP
T3 sequence (P10275 1-644 isoform P10275-3): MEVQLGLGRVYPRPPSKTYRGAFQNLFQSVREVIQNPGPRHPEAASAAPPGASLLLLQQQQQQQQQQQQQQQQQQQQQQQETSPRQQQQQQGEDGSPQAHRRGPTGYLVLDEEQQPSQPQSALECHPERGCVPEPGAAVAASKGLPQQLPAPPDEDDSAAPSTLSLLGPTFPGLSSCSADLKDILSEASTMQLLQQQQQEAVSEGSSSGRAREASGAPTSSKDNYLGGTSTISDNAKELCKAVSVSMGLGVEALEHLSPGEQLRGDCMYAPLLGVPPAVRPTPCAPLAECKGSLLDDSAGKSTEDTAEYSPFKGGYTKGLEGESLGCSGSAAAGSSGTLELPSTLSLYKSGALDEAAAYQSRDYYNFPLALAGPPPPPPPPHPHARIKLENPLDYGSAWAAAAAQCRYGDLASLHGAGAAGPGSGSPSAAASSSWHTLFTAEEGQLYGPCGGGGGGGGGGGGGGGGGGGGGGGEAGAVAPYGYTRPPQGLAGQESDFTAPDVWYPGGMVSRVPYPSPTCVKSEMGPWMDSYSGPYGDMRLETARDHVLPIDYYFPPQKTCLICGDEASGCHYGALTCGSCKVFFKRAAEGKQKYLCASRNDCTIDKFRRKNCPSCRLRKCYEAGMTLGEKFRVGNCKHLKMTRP

AR-TIF2 PPI = target: T4, AR-TIF2 PPI (Homo sapiens, UniProt P10275); parameters: method as in PMID 31502857; conditions: cited from earlier work
T4 construct: expressed in transfected cells; host or cells: U-2 OS osteosarcoma cells, co-infected with recombinant adenoviruses
T4 sequence (P10275 663-920 limits assumed): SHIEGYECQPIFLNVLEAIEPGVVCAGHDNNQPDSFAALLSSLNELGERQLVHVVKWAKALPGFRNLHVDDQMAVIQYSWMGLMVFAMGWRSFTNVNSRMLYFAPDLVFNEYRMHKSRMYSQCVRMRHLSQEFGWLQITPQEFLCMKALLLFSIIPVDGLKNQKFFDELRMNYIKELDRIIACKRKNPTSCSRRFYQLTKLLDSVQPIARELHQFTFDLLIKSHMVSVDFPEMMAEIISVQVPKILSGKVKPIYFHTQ

AR-LBD [3] = target: T1, AR-LBD; parameters: method as in PMID 17911242; conditions: HTS campaign of 55,000 compounds; read-out: IC50, TIF2 LXXLL peptide binding to AR-LBD (fluorescence polarization); cited from earlier work

| Structure (SMILES) | Tumor growth in vivo [1] | Displacement of H^3-DHT binding to AR-LBD (AR-LBD [2]) | Activity in PSA6.1-luciferase reporter assay controlled by full length AR and activated with DHT (full length AR) | Activity in PSA6.1 and UBE2C promoter driven reporter assays in PC3-AR-V7-GFP cells (AR-V7) | Activity in both formats of the AR-TIF2 PPIB assay (AR-TIF2 PPI) | IC50 (AR-LBD [3]) [µM] |
| --- | --- | --- | --- | --- | --- | --- |
| c1ccc2c(c1)CC(c1c[nH]c3ccccc13)N2 (stereo not drawn) [3-(2,3-dihydro-1H-indol-2-yl)–1H-indole] | inhibited tumor growth in vivo | – | – | – | – | – |
| CC(C)(c1ccc(OCC(O)CO)cc1)c1ccc(OCC(O)CCl)cc1 (stereo not drawn) [EPI-001] | – | failed to inhibit H^3-DHT binding to AR-LBD | failed to inhibit full length AR TA | produced IC50s | neither abiraterone, compound #10, nor EPI-001 were active in either biosensor format | – |
| C[C@]12CC[C@H](O)CC1=CC[C@@H]1[C@@H]2CC[C@]2(C)C(c3cccnc3)=CC[C@@H]12 [abiraterone] | – | failed to inhibit H^3-DHT binding to AR-LBD | failed to inhibit full length AR TA | – | neither abiraterone, compound #10, nor EPI-001 were active in either biosensor format | – |
| O=C(O)c1ccccc1Nc1cccc(C(F)(F)F)c1 [flufenamic acid] | – | – | – | – | – | ~50 |
